Each structure is given as a SMILES string. Where two headings read alike, the source gives them in different places.

Experiment [1] has as its system Klebsiella pneumoniae (KPN) isolates. In words: MIC of compounds alone and combined with antibacterials, broth microdilution (CLSI). It counts as cell-based. The following applies: Klebsiella pneumoniae, read-out: MIC. In outline:
(§1)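 Log-phase isolates were inoculated at a final 5.10^5 CFU/mL in cation-adjusted Mueller-Hinton broth and incubated 16-20 h at 35° C in ambient air. MIC was the lowest concentration preventing visible growth; for combinations, the antibacterial MIC was read at each compound concentration.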
A general note: Dilution methods test growth across graded concentrations, often in twofold steps.

Experiment [2] deals with Escherichia coli (ECO) isolates. The experiment is described as above. The following applies: Escherichia coli, read-out: MIC. It counts as cell-based. In outline:
as §1

In the case of `COCC1=C(C(=O)O)N2C(=O)[C@@H](NC(=O)/C(=N\OC)c3csc(N)n3)[C@H]2SC1` [POD, Cefpodoxime], the MIC (commonly the lowest concentration found to suppress growth) in experiment [1] (BAA1898, strain KPN BAA-1898, genotype TEM-1, SHV-11, SHV-12, KPC-2) is > 512 µg/mL; in experiment [1] (strain KPN 6299, genotype TEM-1, SHV-11, OXA-163) it was 64 µg/mL; in experiment [1] (strain KPN 700603, genotype SHV-18, OXA-2), 16 µg/mL; in experiment [1] (strain KPN LIB, genotype SHV-11, OXA-48) it was 1 µg/mL; in experiment [1] (strain KPN UFR22_O, genotype TEM-1, SHV-1, OXA-48), 1 µg/mL; in experiment [1] (strain KPN UFR23, genotype TEM-1, SHV-1, OXA-48), 0.5 µg/mL. For the same compound, the MIC was found to be 64 µg/mL in experiment [1] (strain KPN UFR77, genotype CMY-2); 32 µg/mL in experiment [1] (strain KPN UFR79, genotype DHA-1, OXA-1); 2 µg/mL in experiment [1] (strain KPN UFR80, genotype SHV-11, DHA-1, OXA-1); 2 µg/mL in experiment [2] (strain ECO 4133, genotype TEM-30, OXA-1); 4 µg/mL in experiment [2] (strain ECO 5302, genotype TEM-1, OXA-1); 1 µg/mL in experiment [2] (strain ECO 131119, genotype TEM-1, OXA-48). For the same compound, the minimal inhibitory concentration (MIC) is > 512 µg/mL in experiment [2] (strain ECO 190317, genotype TEM-1, SHV-12, CTX-M-15, OXA-1); 2 µg/mL in experiment [2] (strain ECO RGN238, genotype OXA-1); 2 µg/mL in experiment [2] (strain ECO UFR15, genotype TEM-1, OXA-48); 4 µg/mL in experiment [2] (strain ECO UFR86, genotype ompC-, ompF-); 32 µg/mL in experiment [2] (strain ECO UFR211, genotype TEM-24).

Values taken from patent publication US20200017495A1, “NOVEL HETEROCYCLIC COMPOUNDS AND THEIR USE IN PREVENTING OR TREATING BACTERIAL INFECTIONS” (priority 2017, published 2020).
